# Measurements reported in patent US7422846B2, “Natural ligand for orphan G protein coupled receptor GPR86 and methods of use” (Euroscreen S.A, priority 2001, dated 2008).
# Like-named read-outs stand apart in the source and are kept apart here.
# What was measured:
# [1] = target: T1, GPR86 (P2Y13) human receptor (Homo sapiens, UniProt Q9BPV8, T179M); assay: IP3 accumulation in 1321N1 cells (AG32) expressing GPR86 (P2Y13) together with Gα16; format: cell-based; parameters: expressed in transfected cells; host or cells: 1321N1 astrocytoma clone AG32 (stably expressing Gα16 from pERAEQ2), G418-selected; conditions: for IP3 response to nucleotides: 100 μM for 30 s, pool of G418-resistant clones expressing GPR86 and Gα16; for IP3 responses after treatment of the nucleotide solutions with CPK and CP (ATP-regenerating system): 1 mM solutions, 20 units/ml CPK, 10 mM CP, 90 min, FIG. 4B; for agonist character at human P2Y13 receptor: after creatinephosphate and creatinephosphokinase treatment; for effect on IP3 accumulation: 100 nM and 10 μM
# T1 sequence (Q9BPV8 22-354 T179M): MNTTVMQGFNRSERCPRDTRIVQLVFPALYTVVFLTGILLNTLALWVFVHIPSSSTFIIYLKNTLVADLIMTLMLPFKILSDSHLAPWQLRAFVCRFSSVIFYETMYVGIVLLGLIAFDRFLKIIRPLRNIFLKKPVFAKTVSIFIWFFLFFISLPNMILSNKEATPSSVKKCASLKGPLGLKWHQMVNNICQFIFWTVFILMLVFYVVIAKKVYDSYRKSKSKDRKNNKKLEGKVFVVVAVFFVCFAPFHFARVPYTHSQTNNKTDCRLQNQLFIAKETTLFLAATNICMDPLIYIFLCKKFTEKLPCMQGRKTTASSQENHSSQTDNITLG
# Protocol: Cells of the invention, for example, 1321N1 cells, are labelled for 24 hours with 10 μCi/ml [^3H] inositol in inositol free DMEM containing 5% FCS, antibiotics, amphotericin, sodium pyruvate and 400 μg/ml G418. Cells are incubated for 2 h in Krebs-Ringer Hepes (KRH) buffer of the following composition (124 mM NaCl, 5 mM KCl, 1.25 mM MgSO4, 1.45 mM CaCl2, 1.25 mM KH2PO4, 25 mM Hepes (pH: 7.4) and 8 mM glucose). The cells are then challenged with various nucleotides for 30 s. The incubation is stopped by the addition of an ice cold 3% perchloric acid solution. IP are extracted and separated on Dowex columns as previously described (25). 2MeSATP and ATP solutions (1 mM) are treated at room temperature with 20 units/ml CPK and 10 Mm cp for 90 min to circumvent problems arising from the contamination and degradation of triphosphate nucleotide solutions.
# CHO-K1 and 1321N1 cells were transfected with the recombinant GPR86-pEFIN5 plasmid or with the plasmid alone using the FuGENE™6 transfection reagent (Roche Molecular Biochemicals). A clone called AG32 corresponding to 1321N1 cells previously transfected with pERAEQ2 plasmid encoding Gα16 (provided by Euroscreen), was transfected. The CHO-K1 and 1321N1 transfected cells were selected with 400 μg/ml G418 in complete medium (10% FBS, 100 units/ml penicillin, 100 μg/ml streptomycin and 2.5 μg/ml amphotericin B in respectively Ham's F12 or DMEM (Dulbecco's modified Eagle's) medium) two days after transfection and maintained in the same medium. The AG32 cells were maintained in the same DMEM complete medium supplemented with 500 μg/ml zeocin.
# The pool of G418-resistant clones was tested for its functional IP3 response to several nucleotides, according to the method described above. The cells were challenged by various nucleotides at a concentration of 100 μM for 30 s: ATP, ADP, UTP, UDP, ITP, IDP, TDP.
# Concentration-action curves for ADP, 2MeSADP and ADPβS. […] 1321N1 transfected cells were incubated in the presence of various concentrations of ADP, 2MeSADP and ADPβS for 30 s. The data represent the mean±S.D. of triplicate experimental points obtained in one representative experiment of three.
# AG32 cells were seeded (200,000 cells per dish) on 35 mm (diameter) Petri dishes and labeled for 24 h with 5 μCi/ml [3H]-myoinositol in inositol free DMEM containing 5% fetal calf serum, antibiotics, amphotericin, sodium pyruvate, and 400 μg/ml of G418. Cells were incubated for 2 h in Krebs-Ringer Hepes (KRH) buffer (124 mM NaCl, 5 mM KCl, 1.25 mM MgSO4, 1.45 mM CaCl2, 1.25 mM KH2PO4, 25 mM Hepes (pH 7.4) and 8 mM D-glucose). The cells were then incubated in presence of ADP, ATP or 2MeSATP for 30 s. The incubation was stopped by the addition of 1 ml of an ice-cold 3% perchloric acid solution. Prior to the stimulation, ATP and 2MeSATP (1 mM solutions) were incubated for 90 min at room temperature with 20 units/ml creatine phosphokinase (CPK) and 10 mM creatine phosphate (CP). The reaction was stopped by addition of 10 mM iodoacetamide.
# AG32 cells were seeded (200,000 cells per dish) on 35 mm (diameter) Petri dishes and labeled for 24 h with 5 μCi/ml [^3H]-myoinositol in inositol free DMEM containing 5% fetal calf serum, antibiotics, amphotericin, sodium pyruvate, and 400 μg/ml of G418. Cells were incubated for 2 h in Krebs-Ringer Hepes (KRH) buffer (124 mM NaCl, 5 mM KCl, 1.25 mM MgSO4, 1.45 mM CaCl2, 1.25 mM KH2PO4, 25 mM Hepes (pH 7.4) and 8 mM D-glucose). The cells were then incubated in presence of two different concentrations (100 nM and 10 μM) of ADP or ApnA (n=3-6) for 30 s. The incubation was stopped by the addition of 1 ml of an ice-cold 3% perchloric acid solution.
# AG32 cells were seeded (200,000 cells per dish) on 35 mm (diameter) Petri dishes and labeled for 24 h with 5 μCi/ml [^3H]-myoinositol in inositol free DMEM containing 5% fetal calf serum, antibiotics, amphotericin, sodium pyruvate, and 400 μg/ml of G418.
# [2] = target: T1, GPR86 (P2Y13) human receptor; assay: Western blot of phosphorylated Erk1 and Erk2 in GPR86-transfected CHO-K1 cells; format: cell-based; parameters: expressed in transfected cells; conditions: pertussis toxin 100 ng/ml for 18 h; agonist 1 μM, 5 or 30 minutes
# Protocol: To investigate changes in the activation status of the MAP kinases Erk1 and Erk2 upon stimulation of the human GPR86 receptor, whole CHO-K1 transfected cell extracts were analysed by Western blotting using a specific antibody for the dually phosphorylated kinases (at Thr^202 and Tyr^204), which are the active forms of Erk. Western Blot Analysis of phosphorylated Erk1 and Erk2 proteins.
# GPR86-transfected CHO-K1 cells were seeded at 1.5×10^6 cells/dish. After 24 h, the cells were serum-starved for 2 h in KRH buffer. After stimulation with the agonist, the cells were scraped in 1 ml of PBS pH 7.3 (137 mM NaCl, 2.7 mM KCl, 4.3 mM Na2HPO4.7H2O and 1.4 mM KH2PO4). The cells were recovered by centrifugation and lysed in 150 μl of Laemmli buffer (10% (w/v) glycerol, 5% (v/v) mercaptoethanol, 2.3% (w/v) SDS, 62.5 mM Tris-HCl pH 6.8). The protein concentration was determined using the method of Minamide and Bamburg (27). The same amount of protein for each condition was electrophoresed in a 12% SDS-polyacrylamide gel. Proteins were then transferred overnight at 60 V and 4° C. onto a nitrocellulose membrane using 20 mM Tris, 154 mM glycine, 20% (v/v) methanol as a transfer buffer. Immunodetection was achieved using the enhanced chemiluminescence Western blotting detection system (ECL, Amersham Phammacia Biotech) using a biotinylated-secondary mouse antibody ( 1/25,000). The monoclonal antibody specific for the dually phosphorylated forms of Erk1 and Erk2 (at Thr^202 and Tyr^204) was used at 1/1000-dilution.
# In CHO-K1 cells, phosphorylated Erk1 and Erk2 had the predicted molecular mass of 44 and 42 kDa, respectively. […] GPR86-transfected CHO-K1 cells were stimulated during different times or with various concentrations of ADP and 2MeSADP or water (CONT). The effect of 100 ng/ml pertussis toxin (PTx) has been tested at 5 and 30 min in the presence of 1 μM ADP or 2MeSADP. Blotting and immunodetection were achieved as described using the enhanced chemiluminescence Western blotting detection system (ECL, Amersham Pharmacia Biotech).
# [3] = AG32 cells, nucleotides pretreated with creatine phosphokinase and creatine phosphate, 30 s, read-out: EC50, stimulation of GPR86 receptor activity ([3H]IP3)
# [4] = 1321N1 cells expressing GPR86 and Gα16
compound,measurement,setting,value
"CSc1nc(N)c2ncn([C@@H]3O[C@H](COP(=O)(O)OP(=O)(O)OP(=O)(O)O)[C@@H](O)[C@H]3O)c2n1 [2MeSATP, 2-methylthio-ATP]",IP3 response to nucleotides,[1],responses were lost after HPLC-purification
same,IP3 responses after treatment of the nucleotide solutions with CPK and CP (ATP-regenerating system),[1],abolished
same,agonist character at human P2Y13 receptor,[1]; AG32 cells,partial agonists
same,EC50,[1]; [3],1500 ± 200 nM
"Nc1ncnc2c1ncn2[C@@H]1O[C@H](COP(=O)(O)O)[C@@H](O)[C@H]1OP(=O)(O)O [A2P5P, adenosine 2′,5′-diphosphate]",IP3 response,[1]; [4],No IP3 response
"Nc1ncnc2c1ncn2[C@@H]1O[C@H](COP(=O)(O)O)[C@@H](OP(=O)(O)O)[C@H]1O [A3P5P, adenosine 3′,5′-diphosphate]",IP3 response,[1]; [4],No IP3 response
"Nc1ncnc2c1ncn2[C@@H]1O[C@H](COP(=O)(O)OS(=O)(=O)O)[C@@H](OP(=O)(O)O)[C@H]1O [A3P5PS, adenosine 3′-phosphate 5′-phosphosulfate]",IP3 response,[1]; [4],No IP3 response
Nc1ncnc2c1ncn2[C@@H]1O[C@H](COP(=O)(O)OP(=O)(O)OP(=O)(O)O)[C@@H](O)[C@H]1O [ATP],IP3 response to nucleotides,[1],responses were lost after HPLC-purification
same,IP3 responses after treatment of the nucleotide solutions with CPK and CP (ATP-regenerating system),[1],abolished
same,agonist character at human P2Y13 receptor,[1]; AG32 cells,partial agonists
same,EC50,[1]; [3],4200 ± 800 nM
Nc1ncnc2c1ncn2[C@@H]1O[C@H](COP(=O)(O)OP(=O)(O)OP(=O)(O)OC[C@H]2O[C@@H](n3cnc4c(N)ncnc43)[C@H](O)[C@@H]2O)[C@@H](O)[C@H]1O [Ap3A],effect on IP3 accumulation,"[1]; AG32 cells, 30 s",almost equal to that of ADP
Nc1ncnc2c1ncn2[C@@H]1O[C@H](COP(=O)(O)OP(=O)(O)OP(=O)(O)OP(=O)(O)OC[C@H]2O[C@@H](n3cnc4c(N)ncnc43)[C@H](O)[C@@H]2O)[C@@H](O)[C@H]1O [Ap4A],effect on IP3 accumulation,"[1]; AG32 cells, 30 s",inactive
Nc1ncnc2c1ncn2[C@@H]1O[C@H](COP(=O)(O)OP(=O)(O)OP(=O)(O)OP(=O)(O)OP(=O)(O)OC[C@H]2O[C@@H](n3cnc4c(N)ncnc43)[C@H](O)[C@@H]2O)[C@@H](O)[C@H]1O [Ap5A],effect on IP3 accumulation,"[1]; AG32 cells, 30 s",inactive
Nc1ncnc2c1ncn2[C@@H]1O[C@H](COP(=O)(O)OP(=O)(O)OP(=O)(O)OP(=O)(O)OP(=O)(O)OP(=O)(O)OC[C@H]2O[C@@H](n3cnc4c(N)ncnc43)[C@H](O)[C@@H]2O)[C@@H](O)[C@H]1O [Ap6A],effect on IP3 accumulation,"[1]; AG32 cells, 30 s",inactive
O=c1[nH]cnc2c1ncn2[C@@H]1O[C@H](COP(=O)(O)OP(=O)(O)O)[C@@H](O)[C@H]1O [IDP],IP3 response to nucleotides,[1],induced an IP3 response
O=c1[nH]cnc2c1ncn2[C@@H]1O[C@H](COP(=O)(O)OP(=O)(O)OP(=O)(O)O)[C@@H](O)[C@H]1O [ITP],IP3 response to nucleotides,[1],No IP3 response
Cc1cn([C@H]2C[C@H](O)[C@@H](COP(=O)(O)OP(=O)(O)O)O2)c(=O)[nH]c1=O [TDP],IP3 response to nucleotides,[1],No IP3 response
O=c1ccn([C@@H]2O[C@H](COP(=O)(O)OP(=O)(O)O)[C@@H](O)[C@H]2O)c(=O)[nH]1 [UDP],IP3 response to nucleotides,[1],induced an IP3 response
O=c1ccn([C@@H]2O[C@H](COP(=O)(O)OP(=O)(O)OP(=O)(O)O)[C@@H](O)[C@H]2O)c(=O)[nH]1 [UTP],IP3 response to nucleotides,[1],No IP3 response
Poly[A],activity on human GPR86 after creatinephosphate/creatinephosphokinase treatment,"[1]; AG32 cells, 30 s, FIG. 10",still able to activate GPR86
same,EC50,"[1]; AG32 cells, after creatinephosphate/creatinephosphokinase treatment, concentration in AMP equivalent, read-out: EC50, activation of GPR86 ([3H]IP3)",205000 ± 60000 nM
adenosine 5′-O-(2-thiodiphosphate) [ADPβS],EC50,"[1]; 1321N1 cells expressing GPR86 and Gα16, 30 s, mean±S.D. of three independent experiments, read-out: EC50, IP3 accumulation",48.4 ± 0.4 nM
pertussis toxin,effect on Erk phosphorylation induced by ADP or 2-MeSADP,[2],strongly inhibited
same,inhibition of the ADP response (IP3),"[1]; ADP 300 nM, 18 hours pretreatment with 100 ng/ml pertussis toxin, mean±range of two independent experiments",86±8%
